In US12227482B2, “Compounds and compositions for the treatment of cancer” (The Regents of the University of California, priority 2016, dated 2025):

Assays:
Assay type in all cases: cell-based
A549 cells = assay: Cell viability (CellTiter-Glo ATP content) in A549 cells; details: Homo sapiens, A549, 72 h, 72 hours treatment, cell survival by CellTiter-Glo, 2% fetal bovine serum
Protocol: (§1) Logarithmically growing A549, LOX and MelJuSo cells (ATCC) were plated in antibiotic-free RPMI medium (Coming) supplemented with 2% fetal bovine serum (Gemini Bio-products) at a density of 5,000 cells per well in clear-bottom 96-well plates. The next day cells were treated (triplicates) with increasing doses of a compound of the present disclosure (dissolved in DMSO) and DMSO vehicle controls (final DMSO concentration of 0.5%) for 72 hours and subsequently assessed for cell viability by measuring ATP content with CellTiter-Glo Luminescent Cell Viability Assay (Promega). Signal intensity was measured on a Glomax™ 96 Microplate Luminometer (Promega) and percent cell survival was calculated based on the reading of vehicle control cells set as 100%.

MelJuSo cells = assay: Cell viability (CellTiter-Glo ATP content) in MelJuSo cells; details: Homo sapiens, MEL-JUSO, 72 hours treatment, cell survival by CellTiter-Glo, 2% fetal bovine serum
Protocol: as §1

LOX cells = assay: Cell viability (CellTiter-Glo ATP content) in LOX cells; details: LOX, 72 h, 72 hours treatment, cell survival by CellTiter-Glo, 2% fetal bovine serum
Protocol: as §1

SMILES	IC50 (A549 cells) [µM]	IC50 (MelJuSo cells) [µM]	IC50 (LOX cells) [µM]
CCCCC1C(c2ccc(F)cc2)=NN(c2ccc(Cl)cc2F)C1(C)C(=O)NCCCC(C)(C)CO (stereo not drawn) [Compound 23, 4-butyl-1-(4-chloro-2-fluorophenyl)-3-(4-fluorophenyl)-N-(5-hydroxy-4,4-dimethylpentyl)-5-methyl-4,5-dihydro-1H-pyrazole-5-carboxamide]	0.5 to 1	0.25 to 0.5	0.5 to 1
CCCCC1C(c2ccc(F)cc2)=NN(c2ccc(F)cc2F)C1(C)C(=O)NCCCN(C)C (stereo not drawn) [Compound 24, 4-butyl-1-(2,4-difluorophenyl)-N-(3-(dimethylamino)propyl)-3-(4-fluorophenyl)-5-methyl-4,5-dihydro-1H-pyrazole-5-carboxamide]	> 2	> 2	> 2
CCCCC1C(c2ccc(F)cc2)=NN(c2ccc(F)cc2F)C1(C)C(=O)NCCCCOC (stereo not drawn) [Compound 25, 4-butyl-1-(2,4-difluorophenyl)-3-(4-fluorophenyl)-N-(4-methoxybutyl)-5-methyl-4,5-dihydro-1H-pyrazole-5-carboxamide]	> 2	1 to 2	> 2
CCCCC1C(c2ccc(F)cc2)=NN(c2ccc(F)cc2F)C1(C)C(=O)N(C)CCCOC (stereo not drawn) [Compound 26, 4-butyl-1-(2,4-difluorophenyl)-3-(4-fluorophenyl)-N-(3-methoxypropyl)-N,5-dimethyl-4,5-dihydro-1H-pyrazole-5-carboxamide]	> 2	> 2	> 2
CCCCC1C(c2ccc(F)cc2)=NN(c2ccc(C(F)(F)F)cc2)C1(C)C(=O)NCCCC(C)(C)CO (stereo not drawn) [Compound 28, 4-butyl-3-(4-fluorophenyl)-N-(5-hydroxy-4,4-dimethylpentyl)-5-methyl-1-(4-(trifluoromethyl)phenyl)-4,5-dihydro-1H-pyrazole-5-carboxamide]	> 2	1 to 2	1 to 2
CCCCC1C(c2ccc(F)cc2)=NN(c2ccc(Cl)cc2C)C1(C)C(=O)NCCCC(C)(C)CO (stereo not drawn) [Compound 29, 4-butyl-1-(4-chloro-2-methylphenyl)-3-(4-fluorophenyl)-N-(5-hydroxy-4,4-dimethylpentyl)-5-methyl-4,5-dihydro-1H-pyrazole-5-carboxamide]	> 2	> 2	> 2
CCCCC1C(c2ccc(F)cc2)=NN(c2ccc(Cl)cc2C)C1(C)C(=O)NCCCOC (stereo not drawn) [Compound 30, 4-butyl-1-(4-chloro-2-methylphenyl)-3-(4-fluorophenyl)-N-(3-methoxypropyl)-5-methyl-4,5-dihydro-1H-pyrazole-5-carboxamide]	> 2	> 2	> 2
CCCCC1C(c2ccc(F)cc2)=NN(c2ccc(F)cc2F)C1(C)C(=O)NCCC(=O)OC (stereo not drawn) [Compound 31, methyl 3-(4-butyl-1-(2,4-difluorophenyl)-3-(4-fluorophenyl)-5-methyl-4,5-dihydro-1H-pyrazole-5-carboxamido)propanoate]	1 to 2	0.5 to 1	1 to 2
CCCCC1C(c2ccc(F)cc2)=NN(c2ccc(F)cc2F)C1(C)C(=O)NCCOCC (stereo not drawn) [Compound 32, 4-butyl-1-(2,4-difluorophenyl)-N-(2-ethoxyethyl)-3-(4-fluorophenyl)-5-methyl-4,5-dihydro-1H-pyrazole-5-carboxamide]	0.5 to 1	0.25 to 0.5	0.5 to 1
CCCCC1C(c2ccc(F)cc2)=NN(c2ccccc2)C1(C)C(=O)NCCCCCO (stereo not drawn) [Compound 33, 4-butyl-3-(4-fluorophenyl)-N-(5-hydroxypentyl)-5-methyl-1-phenyl-4,5-dihydro-1H-pyrazole-5-carboxamide]	> 2	0.5 to 1	1 to 2
CCCCC1C(c2ccc(F)cc2)=NN(c2ccccc2)C1(C)C(=O)NCCCCCCO (stereo not drawn) [Compound 34, 4-butyl-3-(4-fluorophenyl)-N-(6-hydroxyhexyl)-5-methyl-1-phenyl-4,5-dihydro-1H-pyrazole-5-carboxamide]	> 2	0.5 to 1	0.5 to 1
CCCCC1C(c2ccc(F)cc2)=NN(c2ccccc2)C1(C)C(=O)NCCCCO (stereo not drawn) [Compound 35, 4-butyl-3-(4-fluorophenyl)-N-(4-hydroxybutyl)-5-methyl-1-phenyl-4,5-dihydro-1H-pyrazole-5-carboxamide]	> 2	1 to 2	1 to 2
CCCCC1C(c2ccc(F)cc2)=NN(c2ccccc2)C1(C)C(=O)NCc1ccc(O)cc1 (stereo not drawn) [Compound 36, 4-butyl-3-(4-fluorophenyl)-N-(4-hydroxybenzyl)-5-methyl-1-phenyl-4,5-dihydro-1H-pyrazole-5-carboxamide]	> 2	1 to 2	> 2
CCCCC1C(c2ccc(F)cc2)=NN(c2ccccc2)C1(C)C(=O)NC(C)(C)CO (stereo not drawn) [Compound 37, 4-butyl-3-(4-fluorophenyl)-N-(1-hydroxy-2-methylpropan-2-yl)-5-methyl-1-phenyl-4,5-dihydro-1H-pyrazole-5-carboxamide]	> 2	> 2	> 2
CCCCC1C(c2ccc(F)cc2)=NN(c2ccccc2)C1(C)C(=O)NCCc1ccc(O)cc1 (stereo not drawn) [Compound 38, 4-butyl-3-(4-fluorophenyl)-N-(4-hydroxyphenethyl)-5-methyl-1-phenyl-4,5-dihydro-1H-pyrazole-5-carboxamide]	> 2	0.5 to 1	> 2
CCCCC1C(c2ccc(F)cc2)=NN(c2ccccc2)C1(C)C(=O)NCc1cccc(Cl)c1 (stereo not drawn) [Compound 39, 4-butyl-N-(3-chlorobenzyl)-3-(4-fluorophenyl)-5-methyl-1-phenyl-4,5-dihydro-1H-pyrazole-5-carboxamide]	> 2	> 2	> 2
CCCCC1C(c2ccc(F)cc2)=NN(c2ccccc2)C1(C)C(=O)NCc1ccc(Cl)c(Cl)c1 (stereo not drawn) [Compound 40, 4-butyl-N-(3,4-dichlorobenzyl)-3-(4-fluorophenyl)-5-methyl-1-phenyl-4,5-dihydro-1H-pyrazole-5-carboxamide]	> 2	> 2	> 2
CCCCC1C(c2ccc(F)cc2)=NN(c2ccccc2)C1(C)C(=O)NCc1cc(Cl)cc(Cl)c1 (stereo not drawn) [Compound 41, 4-butyl-N-(3,5-dichlorobenzyl)-3-(4-fluorophenyl)-5-methyl-1-phenyl-4,5-dihydro-1H-pyrazole-5-carboxamide]	> 2	1 to 2	> 2
CCCCC1C(c2ccc(F)cc2)=NN(c2ccccc2)C1(C)C(=O)N[C@@H](C)c1ccccc1 (stereo partly drawn) [Compound 42, 4-butyl-3-(4-fluorophenyl)-5-methyl-1-phenyl-N-((S)-1-phenylethyl)-4,5-dihydro-1H-pyrazole-5-carboxamide]	> 2	> 2	> 2
CCCCC1C(c2ccc(F)cc2)=NN(c2ccccc2)C1(C)C(=O)N[C@H](C)c1ccccc1 (stereo partly drawn) [Compound 43, 4-butyl-3-(4-fluorophenyl)-5-methyl-1-phenyl-N-((R)-1-phenylethyl)-4,5-dihydro-1H-pyrazole-5-carboxamide]	> 2	> 2	> 2
CCCCC1C(c2ccc(F)cc2)=NN(c2ccccc2)C1(C)C(=O)NCc1ccccc1OC (stereo not drawn) [Compound 44, 4-butyl-3-(4-fluorophenyl)-N-(2-methoxybenzyl)-5-methyl-1-phenyl-4,5-dihydro-1H-pyrazole-5-carboxamide]	> 2	> 2	> 2
CCCCC1C(c2ccc(F)cc2)=NN(c2ccccc2)C1(C)C(=O)NCc1cccc(OC)c1OC (stereo not drawn) [Compound 45, 4-butyl-N-(2,3-dimethoxybenzyl)-3-(4-fluorophenyl)-5-methyl-1-phenyl-4,5-dihydro-1H-pyrazole-5-carboxamide]	> 2	> 2	> 2
CCCCC1C(c2ccc(F)cc2)=NN(c2ccccc2)C1(C)C(=O)NCc1ccc(OC)cc1OC (stereo not drawn) [Compound 46, 4-butyl-N-(2,4-dimethoxybenzyl)-3-(4-fluorophenyl)-5-methyl-1-phenyl-4,5-dihydro-1H-pyrazole-5-carboxamide]	> 2	> 2	> 2
CCCCC1C(c2ccc(F)cc2)=NN(c2ccccc2)C1(C)C(=O)N(C)Cc1ccc(OC)c(OC)c1 (stereo not drawn) [Compound 47, 4-butyl-N-(3,4-dimethoxybenzyl)-3-(4-fluorophenyl)-N,5-dimethyl-1-phenyl-4,5-dihydro-1H-pyrazole-5-carboxamide]	> 2	> 2	> 2
CCCCC1C(c2ccc(F)cc2)=NN(c2ccccc2)C1(C)C(=O)NCc1ccc(N(C)C)cc1 (stereo not drawn) [Compound 48, 4-butyl-N-(4-(dimethylamino)benzyl)-3-(4-fluorophenyl)-5-methyl-1-phenyl-4,5-dihydro-1H-pyrazole-5-carboxamide]	> 2	> 2	> 2
CCCCC1C(c2ccc(F)cc2)=NN(c2ccccc2)C1(C)C(=O)NCCCN(C)C (stereo not drawn) [Compound 49, 4-butyl-N-(3-(dimethylamino)propyl)-3-(4-fluorophenyl)-5-methyl-1-phenyl-4,5-dihydro-1H-pyrazole-5-carboxamide]	> 2	> 2	> 2
CCCCC1C(c2ccc(F)cc2)=NN(c2ccccc2)C1(C)C(=O)NCC(C)(C)CN(C)C (stereo not drawn) [Compound 50, 4-butyl-N-(3-(dimethylamino)-2,2-dimethylpropyl)-3-(4-fluorophenyl)-5-methyl-1-phenyl-4,5-dihydro-1H-pyrazole-5-carboxamide]	> 2	> 2	> 2
